Assay results as given in patent US8258168B2, “2H or 3H-benzo[E]indazol-1-YL carbamate derivatives, the preparation and therapeutic use thereof” (Sanofi, priority 2004, dated 2012).

Tests used:
[1] = test system: motor neurons of the facial nucleus; assay: Test of survival of the motor neurons after sectioning the facial nerve in rats aged 4 days; type: in vivo, rat; conditions: immature rats, facial nerve section, treated for 7 days
Method: Study of the Neuroprotective Activity
Test of Survival of the Motor Neurons after Sectioning the Facial Nerve in Rats Aged 4 Days
After lesion of the facial nerve in immature rats, the motor neurons of the facial nucleus experience neuronal death by apoptosis. Neuronal survival is evaluated using neuronal counting and histological methods.
Immature rats aged 4 days are anaesthetized with pentobarbital (3 mg/kg by the i.p. route). The right facial nerve is exposed and sectioned at its outlet from the stylomastoid foramen. After waking up, the young rats are returned to their mothers and are treated for 7 days with one or two daily administrations, by the oral or intraperitoneal route, at doses ranging from 1 to 10 mg/kg.
7 days after the lesion, the animals are decapitated and the brains are frozen in isopentane at −40° C. The entire facial […] is cut with a cryostat into sections with a width of 10 μm. The motor neurons are stained with cresyl violet and counted using the Histo™ software (Biocom™)

[2] = biological target: T1, peripheral-type benzodiazepine receptors (PBR or p sites) (Rattus norvegicus, UniProt P16257); assay: Binding of [3H]Ro5-4864 to peripheral-type benzodiazepine receptors in rat kidney membranes
T1 construct: After decapitation, the kidney is removed and the tissue is homogenized; from tissue; host or cells: kidney membrane homogenate of male Sprague-Dawley rats
T1 sequence (P16257 whole entry): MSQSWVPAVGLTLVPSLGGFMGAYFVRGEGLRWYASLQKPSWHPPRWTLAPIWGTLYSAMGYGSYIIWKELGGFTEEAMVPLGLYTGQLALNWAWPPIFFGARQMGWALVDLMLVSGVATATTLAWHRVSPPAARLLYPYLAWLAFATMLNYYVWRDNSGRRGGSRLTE

melting point | SMILES | % increase in the survival of the neurons (10 mg/kg po) [1] | IC50 [2]
250 to 251 °C | CCN(CC)C(=O)Oc1c2c(nn1-c1ccncc1)CCc1cc(Cl)ccc1-2.Cl | – | –
146 to 148 °C | CC(C)N(C(=O)Oc1nn(-c2ccncc2)c2c1-c1ccc(Cl)cc1CC2)C(C)C.Cl | – | –
– | CCN(CC)C(=O)Oc1c2c(nn1-c1ccccc1)CCc1cc(Cl)ccc1-2 [compound 14] | 38% | 1.6 nM
– | CCN(CC)C(=O)Oc1c2c(nn1-c1ccc(F)cc1)CCc1ccccc1-2 [compound 20] | 59% | 2.8 nM
– | CCN(CC)C(=O)Oc1c2c(ccc3cc(Cl)ccc32)nn1-c1ccc(F)cc1 [compound 56] | 74% | 1.4 nM
